Assay results published in US7888357B2, “Anti-inflammatory and protein kinase inhibitor compositions and related methods for downregulation of detrimental cellular responses and inhibition of cell death” (Northwestern University, priority 2001, dated 2011).

Columns and labels:
[1] = molecular target: T1, myosin light chain kinase (MLCK) (Gallus gallus, UniProt P11799); assay: Reconstituted enzyme assay, MLCK; format: biochemical, chicken; conditions: γ-[32P]-ATP, synthetic peptide substrate; mean ± SEM; read-out: IC50 MLCK
T1 construct: chicken gizzard MLCK prepared as described; from tissue; host or cells: chicken gizzard
T1 sequence (P11799 935-1906): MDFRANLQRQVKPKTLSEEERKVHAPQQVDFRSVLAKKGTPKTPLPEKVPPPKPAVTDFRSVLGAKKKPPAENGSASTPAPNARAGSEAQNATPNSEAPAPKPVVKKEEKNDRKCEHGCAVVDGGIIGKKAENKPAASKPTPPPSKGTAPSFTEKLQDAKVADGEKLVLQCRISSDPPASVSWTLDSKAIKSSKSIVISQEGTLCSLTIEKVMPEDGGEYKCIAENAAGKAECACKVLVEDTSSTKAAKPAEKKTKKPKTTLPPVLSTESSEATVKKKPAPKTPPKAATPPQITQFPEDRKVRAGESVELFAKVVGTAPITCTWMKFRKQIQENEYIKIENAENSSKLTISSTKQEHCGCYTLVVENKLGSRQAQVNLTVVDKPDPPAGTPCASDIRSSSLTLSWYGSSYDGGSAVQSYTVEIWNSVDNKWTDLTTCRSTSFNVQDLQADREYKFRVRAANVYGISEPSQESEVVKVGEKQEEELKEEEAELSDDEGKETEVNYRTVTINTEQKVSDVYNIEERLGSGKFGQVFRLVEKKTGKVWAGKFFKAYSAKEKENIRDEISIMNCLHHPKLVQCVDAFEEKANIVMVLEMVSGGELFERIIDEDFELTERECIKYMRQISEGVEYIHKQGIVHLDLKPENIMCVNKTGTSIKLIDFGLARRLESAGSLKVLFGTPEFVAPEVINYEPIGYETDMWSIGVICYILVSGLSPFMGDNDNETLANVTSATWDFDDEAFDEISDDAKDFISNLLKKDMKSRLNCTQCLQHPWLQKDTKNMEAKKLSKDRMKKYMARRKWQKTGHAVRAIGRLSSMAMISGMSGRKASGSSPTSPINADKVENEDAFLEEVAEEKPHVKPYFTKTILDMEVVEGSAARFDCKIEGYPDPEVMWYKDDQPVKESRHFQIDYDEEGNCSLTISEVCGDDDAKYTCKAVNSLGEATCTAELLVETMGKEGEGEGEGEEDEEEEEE
Procedure: (§1) [table] […] The rationale for using BV-2 cells in high throughput screening was the paucity of well-characterized human microglial cell lines, and the relevant activation responses and signaling pathways reflect those seen in human and rodent primary microglial cultures. Compounds were tested for their effects on NO accumulation in conditioned media of LPS-stimulated BV-2 cells by measurement of nitrite production by the Griess assay as a read-out for iNOS activity, as described previously. Stock solutions of compounds were prepared in dimethylsulfoxide (DMSO) or in water. When stock solutions were prepared in DMSO, control wells contained the same final concentration of DMSO as the compound-containing wells. […] Solutions of compounds for cell treatments were diluted to a 10× final concentration by dilution of stock solutions in αMEM media. […] Reconstituted enzyme assays were done as described s. The sources of protein kinases were: bovine heart PKA from Promega, rat brain PKC from Calbiochem, rat CaMKII from New England Biolabs, chicken gizzard MLCK prepared as described, and a p38 MAP kinase kit containing recombinant Xenopus p38-MAPK and its human substrate from Upstate Biotechnology. The catalytic domains of these protein kinases retain a high level of amino acid sequence identity across mammalian species, consistent with the lack of documented major differences across species for the in vitro catalytic activity of a given kinase.

CaMKII = molecular target: T2, CaMKII (Rattus norvegicus, UniProt P11275); assay: Reconstituted enzyme assay, CaMKII; format: biochemical; conditions: γ-[32P]-ATP, synthetic peptide substrate; mean ± SEM; read-out: IC50 CaMKII
T2 construct: purchased New England Biolabs
T2 sequence (P11275 1-325 limits assumed): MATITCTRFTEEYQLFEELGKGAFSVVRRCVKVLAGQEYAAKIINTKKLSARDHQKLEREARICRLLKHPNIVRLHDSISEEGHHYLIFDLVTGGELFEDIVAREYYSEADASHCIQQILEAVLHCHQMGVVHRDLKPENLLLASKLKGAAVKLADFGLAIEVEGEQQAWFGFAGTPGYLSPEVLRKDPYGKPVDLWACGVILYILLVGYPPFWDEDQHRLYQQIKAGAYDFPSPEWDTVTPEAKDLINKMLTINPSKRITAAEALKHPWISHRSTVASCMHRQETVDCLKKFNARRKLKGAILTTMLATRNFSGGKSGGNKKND
Procedure: as §1

p38 MAPK = molecular target: T3, p38 MAPK (Xenopus laevis, UniProt P47812); assay: Reconstituted enzyme assay, p38 MAPK; format: biochemical; conditions: γ-[32P]-ATP, synthetic peptide substrate
T3 construct: purchased Upstate Biotechnology
T3 sequence (P47812 whole entry): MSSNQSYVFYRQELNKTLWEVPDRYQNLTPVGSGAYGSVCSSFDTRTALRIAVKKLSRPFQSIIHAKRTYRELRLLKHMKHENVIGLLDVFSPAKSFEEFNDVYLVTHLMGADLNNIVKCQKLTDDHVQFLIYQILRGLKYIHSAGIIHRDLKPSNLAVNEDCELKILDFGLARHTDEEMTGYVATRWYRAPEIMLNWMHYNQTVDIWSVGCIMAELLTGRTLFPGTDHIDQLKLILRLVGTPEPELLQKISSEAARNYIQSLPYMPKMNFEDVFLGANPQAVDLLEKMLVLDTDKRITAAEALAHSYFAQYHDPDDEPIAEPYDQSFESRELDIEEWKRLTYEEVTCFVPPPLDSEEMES
Procedure: as §1, with “The catalytic domains of these protein kinases retain a high level of amino acid sequence identity across mammalian species, consistent with the lack of documented major differences across species for the in vitro catalytic activity of a given kinase.” left out

protein kinase C (PKC) = assay: Reconstituted enzyme assay, PKC; format: biochemical, rat; conditions: γ-[32P]-ATP, synthetic peptide substrate; read-out: IC50 PKC
Procedure: as §1

BV-2 cells = assay: Western blot of transcription factor and kinase phosphorylation in LPS-treated BV-2 cells; format: cell-based, murine; conditions: compound 10 μM
Procedure: FIG. 2. Selective effects of compound 1 (MW01-070C) on glial activation responses and gene-regulating protein kinase pathways. BV-2 cells and rat astrocytes were treated with control buffer (C) or stimulated with LPS or Aβ1-42 peptide in the presence or absence of compound 1, and cell lysates were analyzed by Western blots. (A) Astrocytes treated with LPS and compound 1 show concentration-dependent inhibition of iNOS and IL-1β production but not GFAP. (B) Astrocytes treated with A β1-42 and compound 1 (10 μM) show inhibition of iNOS and IL-1β but not apoE and COX-2. (C) BV-2 cells treated with LPS and compound 1 (10 μM) show inhibition of phosphorylated (p-) CREB but not p-p38 and p-ATF2, as assayed with antibodies that are specific for the phosphorylated forms of the proteins. Data are expressed as percent control (mean±SD; n=3 determinations).
FIG. 7. Effects of MW01-070C on phosphorylation of transcription factors and an upstream activating kinase. BV-2 cells were incubated for 4 hr with control buffer (lane 1), 500 ng/ml LPS (lane 2), or […] LPS+10 μM MW01-070C (lane 3). The levels of phosphorylated (p-) ATF2, p38, and CREB were determined by Western blot of cell lysates, using antibodies that are specific for the phosphorylated forms of these proteins.
For analysis of transcription factor phosphorylation, BV-2 cells were plated at 2×10^5 cells/well in a 12-well tissue culture plate, and grown for 48 hrs in αMEM containing 10% FBS. Immediately before treatment, media was removed, cells were rinsed with PBS, and media changed to serum-free αMEM. Cells were then treated for 4 hrs with control buffer or LPS (500 ng/ml) in the presence or absence of MW01-070C (10 μM), and cell lysates harvested for Western blot analysis.
Cell lysates were prepared and Western blots were done as previously described [Petrova, T. V., Akama, K. T., and Van Eldik, L. J. (1999) Proc Natl Acad Sci USA 96, 4668-4673] using equal volumes of cell extracts per gel lane. The following antibodies were used: monoclonal anti-iNOS (1:1000 dilution, Transduction Labs); polyclonal anti-rat IL-1β (1:1000 dilution, R&D Systems, Inc.); monoclonal anti-glial fibrillary acidic protein (GFAP) (1:[…] dilution, Sigma); polyclonal anti-rat apoE (1:15,000 dilution) prepared as described [LaDu, M. J., Shah, J. A., Reardon, K., Getz, G. S., Bu, G., Hu, J., Guo, L., and Van Eldik, L. J. (2000) J. Biol. Chem. 275, 33974-33980]; polyclonal anti-COX-2 (1:500 dilution) and monoclonal anti-phosphoATF2 (1:1000 dilution) from Santa Cruz Biotechnology; polyclonal anti-phosphoCREB (1:1000 dilution), polyclonal anti-phosphop38 MAPK (1:1000 dilution), polyclonal anti-phosphop90RSK (1:1000 dilution), and monoclonal anti-phosphoERK1/2 (1:1000 dilution) from Cell Signaling.

N=c1cc2c(nn1CCCCCCCCCCC(=O)N1CCN(c3ncccn3)CC1)-c1ccccc1CC2 [MW01-070C]
IC50 [1]: > 100 µM
IC50 (CaMKII): 9.7 ± 1.9 µM
IC50 (p38 MAPK): > 100 µM
IC50 (protein kinase C (PKC)): > 100 µM
phosphorylated ATF2 (BV-2 cells): does not inhibit
phosphorylated p38 MAPK (BV-2 cells): not blocked
phosphorylation of CREB (BV-2 cells): inhibited
phosphorylated p38 MAPK (BV-2 cells; listed as 1): does not inhibit
phosphorylation of CREB (BV-2 cells; listed as 1): inhibits
